The Ki is a measure of affinity in units of concentration, obtained from inhibition or displacement.

The target in one test is T1, recombinant human NK3 receptor (Homo sapiens, UniProt P29371).
T1 construct: expressed in transfected cells; host or cells: HEK293 cells, transient expression; membrane preparation
T1 sequence (P29371 1-465): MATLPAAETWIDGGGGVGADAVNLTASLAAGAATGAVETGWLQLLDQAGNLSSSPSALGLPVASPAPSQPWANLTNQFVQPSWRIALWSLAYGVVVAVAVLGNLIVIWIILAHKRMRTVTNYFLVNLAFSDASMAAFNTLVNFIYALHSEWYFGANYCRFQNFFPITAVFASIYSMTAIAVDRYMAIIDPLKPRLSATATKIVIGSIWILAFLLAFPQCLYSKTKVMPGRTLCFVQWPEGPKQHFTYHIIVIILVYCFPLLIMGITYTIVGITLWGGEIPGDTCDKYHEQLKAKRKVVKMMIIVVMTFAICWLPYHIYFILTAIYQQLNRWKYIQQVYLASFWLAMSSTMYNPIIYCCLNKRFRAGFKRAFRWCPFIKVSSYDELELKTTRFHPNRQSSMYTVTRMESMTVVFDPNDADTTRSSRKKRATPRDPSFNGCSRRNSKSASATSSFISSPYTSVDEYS
The experiment in a line: [3H]SR142801 competition binding assay. The settings on record: [3H]SR142801, membranes of HEK293 cells transiently expressing recombinant human NK3 receptor; read-out: hNK3 Ki. The protocol:
[^3H]SR142801 Competition Binding Assay
hNK3 receptor binding experiment were performed using [^3H]SR142801 (Catalog No. TRK1035, specific activity: 74.0 Ci/mmol, Amersham, GE Healthcare UK limited, Buckinghamshire, UK) and membrane isolated from HEK293 cells transiently expressing recombinant human NK3 receptor. After thawing, the membrane homogenates were centrifuged at 48,000×g for 10 min at 4° C., the pellets were resuspended in the 50 mM Tris-HCl, 4 mM MnCl2, 1 μM phosphoramidon, 0.1% BSA binding buffer at pH 7.4 to a final assay concentration of 5 μg protein/well. For inhibition experiments, membranes were incubated with [^3H]SR142801 at a concentration equal to KD value of radioligand and 10 concentrations of the inhibitory compound (0.0003-10 μM) (in a total reaction volume of 500 μl) for 75 min at room temperature (RT). At the end of the incubation, membranes were filtered onto unitfilter (96-well white microplate with bonded GF/C filter preincubated 1 h in 0.3% PEI+0.3% BSA, Packard BioScience, Meriden, Conn.) with a Filtermate 196 harvester (Packard BioScience) and washed 4 times with ice-cold 50 mM Tris-HCl, pH 7.4 buffer. Nonspecific binding was measured in the presence of 10 μM SB222200 for both radioligands. The radioactivity on the filter was counted (5 min) on a Packard Top-count microplate scintillation counter with quenching correction after addition of 45 μl of microscint 40 (Canberra Packard S. A., Zurich, Switzerland) and shaking for 1 h. Inhibition curves were fitted according to the Hill equation: y=100/(1+(x/IC50)^nH), where nH=slope factor using Excel-fit 4 software ([…]). IC50 values were derived from the inhibition curve and the affinity constant (IQ values were calculated using the Cheng-Prussoff equation Ki=IC50/(1+[L]/KD) where [L] is the concentration of radioligand and KD is its dissociation constant at the receptor, derived from the saturation isotherm. All experiments were performed in duplicate and the mean±standard error (SEM) of the individual Ki values was calculated.
For the compound `CC(=O)N(C1CC1)C1CCN(CCC(C)(C(=O)N[C@@H](CO)c2ccc(Cl)cc2)c2ccc(Cl)c(Cl)c2)CC1` (single isomer, unassigned; diastereoisomer 1) [Example 142, 4-[4-(Acetyl-cyclopropyl-amino)-piperidin-1-yl]-N-[1-(4-chloro-phenyl)-2-hydroxy-ethyl]-2-(3,4-dichloro-phenyl)-2-methyl-butyramide (diastereoisomer 1)], the Ki stood at 10.9 nM. For `CC(=O)N(C1CC1)C1CCN(CCC(C)(C(=O)N[C@@H](CO)c2ccc(Cl)c(Cl)c2)c2ccc(Cl)c(Cl)c2)CC1` (single isomer, unassigned; diastereoisomer 1) [Example 144, 4-[4-(Acetyl-cyclopropyl-amino)-piperidin-1-yl]-2-(3,4-dichloro-phenyl)-N-[1-(3,4-dichloro-phenyl)-2-hydroxy-ethyl]-2-methyl-butyramide (diastereoisomer 1)], the Ki was 10.1 nM.

Take `COCCN(C(C)=O)C1CCN(CCC(C)(C(=O)N[C@@H](CO)c2ccc(F)cc2)c2ccc(Cl)c(Cl)c2)CC1` (single isomer, unassigned; diastereoisomer 1) [Example 146, 4-{4-[Acetyl-(2-methoxy-ethyl)-amino]-piperidin-1-yl}-2-(3,4-dichloro-phenyl)-N-[1-(4-fluoro-phenyl)-2-hydroxy-ethyl]-2-methyl-butyramide (diastereoisomer 1)]: the Ki worked out at 0.7 nM. On the same count and under the same terms, for `CC(=O)NC1CCN(CCC(C)(C(=O)N[C@@H](CO)c2ccc(F)cc2)c2ccc(Cl)c(Cl)c2)CC1` (single isomer, unassigned; diastereoisomer 1) [Example 154, 4-(4-Acetylamino-piperidin-1-yl)-2-(3,4-dichloro-phenyl)-N-[1-(4-fluoro-phenyl)-2-hydroxy-ethyl]-2-methyl-butyramide (diastereoisomer 1)] the value was 170 nM; for `CC(=O)NC1CCN(CCC(C)(C(=O)N[C@@H](CO)c2ccc(Cl)cc2)c2ccc(Cl)c(Cl)c2)CC1` (single isomer, unassigned; diastereoisomer 1) [Example 156, 4-(4-Acetylamino-piperidin-1-yl)-N-[1-(4-chloro-phenyl)-2-hydroxy-ethyl]-2-(3,4-dichloro-phenyl)-2-methyl-butyramide (diastereoisomer 1)], 50.5 nM.

Consider `CC(=O)NC1CCN(CCC(C)(C(=O)N[C@@H](CO)c2ccc(Cl)c(Cl)c2)c2ccc(Cl)c(Cl)c2)CC1` (single isomer, unassigned; diastereoisomer 1) [Example 158], for which the Ki turned out to be 34.6 nM.

Turning to `CN(C1CCN(CCC(C)(C(=O)N[C@H](CO)c2ccc(Cl)c(Cl)c2)c2ccc(Cl)c(Cl)c2)CC1)S(C)(=O)=O` (single isomer, unassigned; diastereoisomer 2) [Example 50, 2-(3,4-Dichloro-phenyl)-N-[1-(3,4-dichloro-phenyl)-2-hydroxy-ethyl]-4-[4-(methanesulfonyl-methyl-amino)-piperidin-1-yl]-2-methyl-butyramide; diastereoisomer 2], the inhibition constant (Ki) was found to be 52.1 nM.

For the compound `CCN(C1CCN(CCC(C)(C(=O)N[C@H](CO)c2ccc(Cl)c(Cl)c2)c2ccc(Cl)c(Cl)c2)CC1)S(C)(=O)=O` (single isomer, unassigned; diastereoisomer 2) [Example 80, 2-(3,4-Dichloro-phenyl)-N-[1-(3,4-dichloro-phenyl)-2-hydroxy-ethyl]-4-[4-(ethyl-methanesulfonyl-amino)-piperidin-1-yl]-2-methyl-butyramide; diastereoisomer 2], the Ki amounted to 13.3 nM.

Take `CC(CCN1CCC(N2CCCC2=O)CC1)(C(=O)N[C@H](CO)c1ccc(Cl)c(Cl)c1)c1ccc(Cl)c(Cl)c1` (single isomer, unassigned; diastereoisomer 2) [Example 98, 2-(3,4-Dichloro-phenyl)-N-[1-(3,4-dichloro-phenyl)-2-hydroxy-ethyl]-2-methyl-4-[4-(2-oxo-pyrrolidin-1-yl)-piperidin-1-yl]-butyramide; diastereoisomer 2]: the Ki came to 49.9 nM. `CC(=O)N(C)C1CCN(CCC(C)(C(=O)N[C@H](CO)c2ccc(Cl)c(Cl)c2)c2ccc(Cl)c(Cl)c2)CC1` (single isomer, unassigned; diastereoisomer 2) [Example 110, 4-[4-(Acetyl-methyl-amino)-piperidin-1-yl]-2-(3,4-dichloro-phenyl)-N-[1-(3,4-dichloro-phenyl)-2-hydroxy-ethyl]-2-methyl-butyramide; diastereoisomer 2]: the Ki stood at 110 nM. In the case of `CC(=O)N(C)C1CCN(CCC(C)(C(=O)N[C@H](CO)c2ccc(F)cc2)c2ccc(Cl)c(Cl)c2)CC1` (single isomer, unassigned; diastereoisomer 2) [Example 139, 4-[4-(Acetyl-methyl-amino)-piperidin-1-yl]-2-(3,4-dichloro-phenyl)-N-[1-(4-fluoro-phenyl)-2-hydroxy-ethyl]-2-methyl-butyramide (diastereoisomer 2)], the Ki was found to be 141 nM. As for `CC(=O)N(C1CC1)C1CCN(CCC(C)(C(=O)N[C@H](CO)c2ccc(F)cc2)c2ccc(Cl)c(Cl)c2)CC1` (single isomer, unassigned; diastereoisomer 2) [Example 141, 4-[4-(Acetyl-cyclopropyl-amino)-piperidin-1-yl]-2-(3,4-dichloro-phenyl)-N-[1-(4-fluoro-phenyl)-2-hydroxy-ethyl]-2-methyl-butyramide (diastereoisomer 2)], the Ki was 165 nM.

On to `CC(=O)N(C1CC1)C1CCN(CCC(C)(C(=O)N[C@@H](CO)c2ccc(Cl)cc2)c2ccc(Cl)c(Cl)c2)CC1` (single isomer, unassigned; diastereoisomer 2) [Example 143, 4-[4-(Acetyl-cyclopropyl-amino)-piperidin-1-yl]-N-[1-(4-chloro-phenyl)-2-hydroxy-ethyl]-2-(3,4-dichloro-phenyl)-2-methyl-butyramide (diastereoisomer 2)], for which the Ki came out at 87.7 nM. Still for that read-out and setting: for `CC(=O)N(C1CC1)C1CCN(CCC(C)(C(=O)N[C@H](CO)c2ccc(Cl)c(Cl)c2)c2ccc(Cl)c(Cl)c2)CC1` (single isomer, unassigned; diastereoisomer 2) [Example 145, 4-[4-(Acetyl-cyclopropyl-amino)-piperidin-1-yl]-2-(3,4-dichloro-phenyl)-N-[1-(3,4-dichloro-phenyl)-2-hydroxy-ethyl]-2-methyl-butyramide (diastereoisomer 2)] the value was 50.2 nM; for `CC(=O)NC1CCN(CCC(C)(C(=O)N[C@H](CO)c2ccc(F)cc2)c2ccc(Cl)c(Cl)c2)CC1` (single isomer, unassigned; diastereoisomer 2) [Example 155, 4-(4-Acetylamino-piperidin-1-yl)-2-(3,4-dichloro-phenyl)-N-[1-(4-fluoro-phenyl)-2-hydroxy-ethyl]-2-methyl-butyramide (diastereoisomer 2)], 13.8 nM; for `CC(=O)NC1CCN(CCC(C)(C(=O)N[C@@H](CO)c2ccc(Cl)cc2)c2ccc(Cl)c(Cl)c2)CC1` (single isomer, unassigned; diastereoisomer 2) [Example 157, 4-(4-Acetylamino-piperidin-1-yl)-N-[1-(4-chloro-phenyl)-2-hydroxy-ethyl]-2-(3,4-dichloro-phenyl)-2-methyl-butyramide (diastereoisomer 2)], 773 nM. On the same count and under the same terms, for `CC(=O)NC1CCN(CCC(C)(C(=O)N[C@H](CO)c2ccc(Cl)c(Cl)c2)c2ccc(Cl)c(Cl)c2)CC1` (single isomer, unassigned; diastereoisomer 2) [Example 159] the value was 258 nM; for `CCCN(C(C)=O)C1CCN(CCC(C)(C(=O)N[C@@H](CO)c2ccc(F)cc2)c2ccc(Cl)c(Cl)c2)CC1` (single isomer, unassigned; epimer 1) [Example 162], 0.5 nM.

The same test, now with this note: representative compounds; [3H]SR142801, HEK293 membranes, human NK3 receptor; read-out: Ki NK3 h.
On to `COCCN(C(C)=O)C1CCN(CCC(C)(C(=O)N[C@@H](CO)c2ccc(F)cc2)c2ccc(Cl)c(Cl)c2)CC1` (single isomer, unassigned; diastereoisomer 1) [Example 146, 4-{4-[Acetyl-(2-methoxy-ethyl)-amino]-piperidin-1-yl}-2-(3,4-dichloro-phenyl)-N-[1-(4-fluoro-phenyl)-2-hydroxy-ethyl]-2-methyl-butyramide (diastereoisomer 1)], for which the Ki amounted to 0.7 nM.

As to `CCCN(C(C)=O)C1CCN(CCC(C)(C(=O)N[C@@H](CO)c2ccc(F)cc2)c2ccc(Cl)c(Cl)c2)CC1` (single isomer, unassigned; epimer 1) [Example 162], the Ki was determined as 0.5 nM.

Source of the values: patent US20110021565A1, “PIPERIDINE DERIVATIVES AS NK3 ANTAGONISTS” (priority 2007, published 2011).
